Source: patent US10532987B2, “Compounds and methods for inducing browning of white adipose tissue” (GUANGZHOU INSTITUTES OF BIOMEDICINE AND HEALTH, CHINESE …, priority 2015, dated 2020)

What was measured:
white adipose tissue = experiment: High fat diet induced obesity mouse model; hematoxylin and eosin staining and UCP1 immunochemistry of adipose tissue; format: in vivo, mice; conditions: 50 mg/kg daily gavage, compared with control group
Procedure: 8-week-old male mice (57BL/6J) were housed in metabolism cages and maintained on a 12 h lightdark cycle at 23° C. and fed high fat diet (HFD) (21.9 kJ/g, 60% of energy as fat, 20% of energy as protein, 20% of energy as carbohydrate; D12492; Research Diet, New Brunswick, N.J., USA) for 8 weeks. Then, diets induced obese mice were randomized into two groups according to glucose levels and body weight and gavaged with daily indicated drugs (50 mg/kg) or vehicle. Food intake and body weight was measured weekly. All experiments with animals were approved by the Animal Care and Use Committee of Guangzhou Institute of Biomedicine and Health, Chinese Academy of Sciences.
Hematoxylin and eosin staining was performed as the standard protocol (see reference 15). As to the results, please see FIG. 1 (left panel) using compound 1 as the test compound.
Wash sections in dH2O three times for 5 minutes each. Incubate sections in 3% hydrogen peroxide for 10 minutes. Wash sections in dH2O twice for 5 minutes each, and then wash sections in wash buffer for 5 minutes. Block each section with 100-400 μl blocking solution for 1 hour at room temperature. Remove blocking solution and add 100-400 μl primary UCP1 antibody to each section. Incubate overnight at 4° C. Remove antibody solution and wash sections in wash buffer three times for 5 minutes each. […]

Ucp1 = experiment: UCP1 luciferase assay (Ucp1 up-regulation in differentiated inguinal adipocytes of Ucp1-luciferase knock-in mice); format: cell-based; conditions: Mus musculus, Adipocyte, 48 h; at 3 μM; 2 days treatment; luciferase activity; read-out: Ucp1 activation fold/corresponding concentration
Procedure: TEST EXAMPLE 1 UCP1 Luciferase Assay
Evaluating Compounds that Induce Ucp1 Up-Regulation
Ucp1-luciferase knock-in mice will be housed in cages and fed on standard chow diets (the detailed procedures please see reference 14). The 8-week-old mice will be killed by the cervical dislocation and put into 75% alcohol for 5 minutes. The inguinal adipose tissue will be dissected out and transferred to the three 10-cm petri dishes and washed with PBS for three times. The adipose tissue will be dissected and minced on a 10-cm petri dish for several minutes and then pipetted into 20 ml 0.1% collagenase solution in 50 ml conical tubes and digested at 37° C. for 1 hour. Next, 20 ml culture medium will be added to terminate the digestion and centrifuged for 10 minutes at 1000 rpm respectively. The supernatants will be removed and the pellets re-suspended in 10 mL culture medium and plated into 10-cm plates. The cells will be left to adhere to the plates overnight and the culture medium will be changed every other day. The confluent cells will be trypsinized, counted and plated to 24-well plate (5×10^4 cells/well). The cells will be washed and re-fed the next day (as day −2). Two days later (day 0), the cells will usually become confluent and be induced to differentiate with MDIR medium. On day 2, the medium will be changed to IR medium and re-fed every 2 days. Complete differentiation is usually achieved by day 10. On day 10, the medium will be changed to the culture medium of 10% FBS/DMEM with indicated drugs along with the positive and negative controls for 2 days. The media will be removed and the cells washed with 1 ml PBS per well three times. Then 100 μl lysis buffer will be used to lyse the cells at 4° C. for 1 hour. 30 μl culture medium, 30 μl cell lysates and 60 μl Steady-Glo® Reagent were added to a well of 96-well-plate and the luminescence will be measured using a luminometer. The protein concentration will be determined using 20 μl cell lysates and specific activity of luciferase will be tabulated and data analyzed.

COc1ccc(-c2csc(Nc3ccccn3)n2)cc1OC [Compound 1, 4-(3,4-dimethoxyphenyl)-N-(pyridin-2-yl)thiazol-2-amine]
browning of adipose tissue (hematoxylin and eosin staining and UCP1 immunochemistry) (white adipose tissue; 16-week-old obese mice (57BL/6J) induced by high fat diet for 8 weeks): promotes browning of adipose tissue
adipose tissue cell size and cell number (white adipose tissue; 16-week-old obese mice induced by high fat diet for 8 weeks): reduced cell size and increased cell number
fold induction at 3 µM (Ucp1): 5.2
